The values below come from paper PMC3997074, “Pharmacokinetic and Biodistribution Assessment of a Near Infrared-Labeled PSMA-Specific Small Molecule in Tumor-Bearing Mice” (Prostate Cancer, 2014).

The target of test [1] is T1, prostate-specific membrane antigen (PSMA) (Homo sapiens, UniProt Q04609).
T1 construct: gene FOLH1
Description: competition of YC-27 […]CW binding to LNCaP cells. The format is cell-based.

For test [2], the target named is T1, prostate-specific membrane antigen (PSMA). Description: NIR fluorescence saturation binding to PSMA-positive […]1 cells (PSMA-negative PC3 M-LN4 control; LNCaP apparent Kd […]). The format is cell-based.

T1 sequence (Q04609 whole entry): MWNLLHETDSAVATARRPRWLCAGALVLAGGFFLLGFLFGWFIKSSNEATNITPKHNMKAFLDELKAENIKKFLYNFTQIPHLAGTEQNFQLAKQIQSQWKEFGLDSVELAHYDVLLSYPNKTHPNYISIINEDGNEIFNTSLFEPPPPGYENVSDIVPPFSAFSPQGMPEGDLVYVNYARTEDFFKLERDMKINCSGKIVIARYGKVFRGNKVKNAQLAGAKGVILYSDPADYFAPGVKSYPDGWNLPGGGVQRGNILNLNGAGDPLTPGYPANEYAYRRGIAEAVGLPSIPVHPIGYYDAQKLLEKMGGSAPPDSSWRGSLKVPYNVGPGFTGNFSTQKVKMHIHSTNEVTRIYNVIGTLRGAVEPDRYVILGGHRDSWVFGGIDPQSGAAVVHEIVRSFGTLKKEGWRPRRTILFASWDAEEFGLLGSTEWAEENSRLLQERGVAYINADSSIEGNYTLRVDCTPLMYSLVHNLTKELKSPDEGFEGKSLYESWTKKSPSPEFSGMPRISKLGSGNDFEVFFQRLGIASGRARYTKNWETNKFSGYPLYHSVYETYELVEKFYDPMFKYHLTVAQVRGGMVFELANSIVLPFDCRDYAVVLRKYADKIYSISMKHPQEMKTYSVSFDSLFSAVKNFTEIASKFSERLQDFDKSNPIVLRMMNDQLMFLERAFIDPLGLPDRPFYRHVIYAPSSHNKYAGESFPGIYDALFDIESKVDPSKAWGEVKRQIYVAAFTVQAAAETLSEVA

In turn, unlabeled YC-27 came in with an IC50 in test [1] of 1700 nM.
Turning to YC-27 800CW, in test [2], the Kd turned out to be 8 nM.
